Earlier results on one molecule are cited in patent publication US12582632B2, “Inhibition of neurological injuries due to infections via administration of Butanetap and analogs thereof” (priority 2021, dated 2026).

For this series the following is noted: 3 phase 3 clinical studies, failed; cited from earlier work.

As to `CN1CC[C@@]2(C)c3cc(OC(=O)Nc4ccccc4)ccc3N(C)[C@@H]12` [Phenserine, (−)-N-phenylcarbamoyl eseroline], the “side effects in clinical studies” value was “high cholinomimetic side effects”.
